According to patent US20240401101A1, “A LIVE CELL ASSAY TO DETERMINE PERMEABILITY OF TEST MOLECULES TO AND/OR WITHIN THE PEPTIDOGLYCAN SCAFFOLD OF BACTERIA CELLS” (priority 2021, published 2024):

Tests used:
M. smegmatis mc^2 155 [1] = assay: Example IV: metabolic PG labeling of Msm with DBCO tags followed by azide fluorophore, flow cytometry; type: cell-based, Mycobacterium smegmatis; settings: for cellular fluorescence with azide-modified fluorophore in cells pre-labeled with TetD: 25 μM TetD, fluorophore 1 h at 37° C.
Description: General method for bacterial peptidoglycan modification. M. smegmatis strains was inoculated from the glycerol stock to the according media and grown for 24 hours until 0.5-0.6 OD, tetrapeptide probes were added to the media and the cells were grown overnight to achieve stationary phase. The cells were harvested the next day and spun down for 2 min at 3000 g, washed with phosphate buffered saline with tween80 (PBST, PBS with 0.05% tween 80) two times and resuspended in PBST to yield DBCO-modified M. smegmatis cells for further labeling and other experiments.
(§1) DBCOtetra compared with stereo control and single amino acid DBCO. M. smegmatis mc^2 155 was inoculated from stationary phase in 1:100 dilution to a fresh 7H9 media with ADC. 25 μM Dap-DBCO, DBCOtetra or DBCOtera(L) were added to the culture tubes respectively, and the cells were grown for 36-40 hours until stationary phase. The cells were harvested and spun down for 2 min at 3000 g, washed with PBST two times and resuspended in PBST. To a 96-well plate added 100 μL cells pre well with 50 μM FAM-N3 in triplicate. The plate was incubated in 37° C. for 1 h and spun down for 2 min at 3000 g. The supernatant was decanted, and the pellets were washed with PBST for 2 times and fixed with 4% formaldehyde for 15 mins. The samples were then analyzed by Attune™ NxT Acoustic Focusing Cytometer.
as §1, with “Confirm for click chemistry on PG.” for “DBCOtetra compared with stereo control and single amino acid DBCO.”, “μM” for “μM Dap-DBCO,”, “FL-tetra” for “DBCOtera(L)”, “uL” for “μL”, “FAM-N3 or 5-carboxy fluorescein accordingly” for “FAM-N3”
as §1, with “Different concentrations of DBCOtetra.” for “DBCOtetra compared with stereo control and single amino acid DBCO.”, “ADC. 5 μM, 10 μM or” for “ADC.”, “μM” for “μM Dap-DBCO,”, “DBCOtetra” for “DBCOtetra or DBCOtera(L)”, “1h” for “1 h”
Different concentration of FAM-N3 and different time. M. smegmatis mc^2 155 was inoculated from stationary phase in 1:100 dilution to a fresh 7H9 media with ADC. 25 μM DBCOtetra were added to the culture tubes, and the cells were grown for 36-40 hours until stationary phase. The cells were harvested and spun down for 2 min at 3000 g, washed with PBST two times and resuspended in PBST. To a 96-well plate added 100 μL cells pre well with different concentration of FAM-N3 described in the main text, 9 wells each. […] The samples were then analyzed by Attune™ NxT Acoustic Focusing Cytometer. […]

S. aureus (ATCC 25923) = assay: Flow cytometry of S. aureus treated with thiol PG analogs / cystine enantiomers, then Mal-Fl; type: cell-based, Staphylococcus aureus; settings: DTT 5 mM, 25 μM Mal-Fl
Description: Flow cytometry analysis of S. aureus treated with thiol analogue panel. LB media containing 1 mM of each respective thiol analogue or dimethyl sulfoxide (DMSO) were prepared. S. aureus ATCC 25923 cells from an overnight culture were added to the medium (1:100 dilution) and allowed to grow overnight at 37° C. with shaking at 250 rpm. The cells were harvested at 4000 rpm and treated with 5 mM dithiothreitol (DTT) at the original culture volume for 5 minutes, to reverse any thiol oxidation that may have occurred. The cells were harvested at 4000 rpm and washed twice at the original culture volume with 1× phosphate-buffered saline (PBS) to remove residual DTT. […] The cells were washed once more to remove formaldehyde and then analyzed using the Attune NxT flow cytometer equipped with a 488 nm laser and 525/40 nm bandpass filter. The data were analyzed using the Attune NXT Software.
Flow cytometry analysis of S. aureus treated with cystine enantiomers. […] The cells were washed once more to remove formaldehyde and then analyzed using the Attune NxT flow cytometer as described above.
The first goal was to identify which cysteine-based label would result in the highest level of thiol handles on the surface of S. aureus. […] Incubation of cells with D-cystine (2) led to a ˜12-fold increase in cellular fluorescence relative to DMSO treated cells. […]

S. aureus (ΔclpX) = assay: DBCO-pegn-Fl library in clpX deletion strain; type: cell-based, Staphylococcus aureus; settings: 1 mM D-LysAz, 25 μM probe, versus WT SA546
Description: TSB media containing 1 mM of D-LysAz were prepared. S. aureus SA546, ΔclpX, or ΔclpXΔltaS cells from overnight cultures were added to the medium (1:100 dilution) and allowed to grow overnight at 37° C. with shaking at 250 rpm. The cells were harvested at 4000 rpm and washed three times at the original culture volume with 1×PBS. Each strain was then treated with the DBCO-pegn-Fl library. All library members were used at a 25 μM concentration for 30 minutes at 37° C. and protected from light. The samples were subsequently harvested at 4000 rpm and washed three times with 1×PBS followed by fixation with 2% formaldehyde in 1×PBS for 30 minutes. The cells were washed once more to remove formaldehyde and then analyzed using the Attune NxT flow cytometer as described above.

[2] = test system: WT S. aureus (ATCC 25923); type: cell-based, Staphylococcus aureus
Description: LB media containing 1 mM of D-LysAz were prepared. S. aureus ATCC 25923 cells supplemented with 0.1 μg/mL tunicamycin, S. aureus ΔtarO cells supplemented with 150 μg/mL spectinomycin, or S. aureus ATCC 25923 cells from overnight cultures were added to the medium (1:100 dilution) and allowed to grow overnight at 37° C. with shaking at 250 rpm. The cells were harvested at 4000 rpm and washed three times at the original culture volume with 1×PBS. Each strain was then treated with the DBCO-pegn-Fl library. All library members were used at a 25 μM concentration for 30 minutes at 37° C. and protected from light. The samples were subsequently harvested at 4000 rpm and washed three times with 1×PBS followed by fixation with 2% formaldehyde in 1×PBS for 30 minutes. The cells were washed once more to remove formaldehyde and then analyzed using the Attune NxT flow cytometer as described above.
LB media containing either 1 mM of D-LysAz, N^ε-azido-L-lysine hydrochloride (L-LysAz), or DMSO were prepared. S. aureus ATCC 25923 cells were added to the LB medium (1:100) and allowed to grow overnight at 37° C. with shaking at 250 rpm. The cells were harvested at 4000 rpm and washed three times at the original culture volume with 1×PBS. […] The cells were washed once more to remove formaldehyde and then analyzed using the Attune NxT flow cytometer as described above.

S. aureus (ΔtarO) = assay: Flow cytometry of D-cystine tagged WTA deletion strain treated with maleimide accessibility probes; type: cell-based, Staphylococcus aureus; settings: 0.1 μg/mL tunicamycin, 25 μM Mal-Fl
Description: (§2) Flow cytometry analysis of S. aureus strains treated with Mal-pegn-Fl and Mal-pron-Fl libraries. LB media containing 1 mM of D-cystine were prepared. S. aureus ATCC 25923, S. aureus ATCC 25923 supplemented with 0.1 μg/mL tunicamycin, S. aureus ΔtarO supplemented with 150 μg/mL spectinomycin, USA300, or S. aureus SCO1 cells from overnight cultures were added to the medium (1:100 dilution) and allowed to grow overnight at 37° C. with shaking at 250 rpm. The cells were harvested at 4000 rpm and treated with 5 mM DTT at the original culture volume for 5 minutes, to reverse any thiol oxidation that may have occurred. The cells were harvested at 4000 rpm and washed twice at the original culture volume with 1×PBS to remove residual DTT. Each strain was then treated with both libraries, Mal-pegn-Fl and Mal-pron-Fl, in parallel. All library members were used at a 25 μM concentration for 30 minutes at 37° C. and protected from light. The samples were subsequently harvested at 4000 rpm and washed three times with 1×PBS followed by fixation with 2% formaldehyde in 1×PBS for 30 minutes. The cells were washed once more to remove formaldehyde and then analyzed using the Attune NxT flow cytometer as described above.
(§3) Tunicamycin scan. […] The cells were washed once more to remove formaldehyde and then analyzed using the Attune NxT flow cytometer as described above.

[3] = test system: WT S. aureus (ATCC 25923); assay: Flow cytometry of D-cystine tagged S. aureus treated with Mal-pegn-Fl and Mal-pron-Fl accessibility probes, with or without tunicamycin; type: cell-based, Staphylococcus aureus; settings: 0.001-0.1 μg/mL tunicamycin, 25 μM Mal-Fl
Description: as §2, §3

M. smegmatis mc^2 155 [4] = assay: Ldt inhibition with meropenem (incorporation of TetD); type: cell-based, Mycobacterium smegmatis; settings: 25 μM TetD, then Fl-az
Description: Ldt inhibition with meropenem. M. smegmatis mc^2 155 was inoculated from the glycerol stock by 1 to 1000 dilution to the according media and grown for 24 hours until 0.5-0.6 OD. 25 μM DBCOtetra were added to the media, and the cells were aliquoted to a 96-well culture plate with different concentration of meropenem described in the main text, in triplicate respectively. The cells were then grown overnight to achieve stationary phase. The cells were harvested and spun down for 2 min at 3000 g, washed with PBST two times and resuspended in PBST. To a 96-well plate added 100 uL cells pre well with 50 μM FAM-N3 accordingly transferred from the culture plate. The plate was incubated in 37° C. for 1 h and spun down for 2 min at 3000 g. The supernatant was decanted, and the pellets were washed with PBST for 2 times and fixed with 4% formaldehyde for 15 mins. The samples were then analyzed by Attune™ NxT Acoustic Focusing Cytometer.

[N-]=[N+]=Nc1ccc2c(c1)C1(OC2=O)c2ccc(N)cc2Oc2cc(N)ccc21 [rhodamine 110, 6-azido-rhodamine 110]
cellular fluorescence with azide-modified fluorophore in cells pre-labeled with TetD (M. smegmatis mc^2 155 [1]): higher than Fl-az, albeit with a lower fold increase over unlabeled cells

N[C@H](CSSC[C@@H](N)C(=O)O)C(=O)O [D-cystine]
increase in cellular fluorescence relative to DMSO treated cells (S. aureus (ATCC 25923); 1 mM PG analog overnight): ~12 fold

O=C1OC2(c3ccc(O)cc3Oc3cc(O)ccc32)c2ccc(NC(=S)NCCC(=O)N3Cc4ccccc4C#Cc4ccccc43)cc21 [DBCO-Fl, fluorescein-DBCO]
permeation of probe on deletion of clpX alone (S. aureus (ΔclpX)): did not lead to an increase

Cl.[N-]=[N+]=NNCCCC[C@H](N)C(=O)O [L-LysAz, N^ε-azido-L-lysine hydrochloride]
cellular fluorescence after DBCO-Fl [2]: background fluorescence levels

N[C@@H](CSSC[C@H](N)C(=O)O)C(=O)O [L-cystine]
cellular fluorescence compared to DMSO treated cells (S. aureus (ATCC 25923); 1 mM overnight): minimal increase

[N-]=[N+]=Nc1ccc2c(c1)C1(OC2=O)c2ccc(O)cc2Oc2cc(O)ccc21 [Fl-az, 6-azido-fluorescein]
cellular fluorescence with azide-modified fluorophore in cells pre-labeled with TetD (M. smegmatis mc^2 155 [1]): concentration-dependent and time-dependent increase in cellular fluorescence

tunicamycin
effect of tunicamycin on ΔtarO cells (S. aureus (ΔtarO)): minimal additive effect | effect of tunicamycin treatment on cellular fluorescence [3]: higher overall levels of cellular fluorescence in a concentration dependent manner

C[C@@H](O)[C@H]1C(=O)N2C(C(=O)O)=C(S[C@@H]3CN[C@H](C(=O)N(C)C)C3)[C@H](C)[C@H]12 [meropenem]
cellular fluorescence with increasing levels of meropenem in the presence of TetD (M. smegmatis mc^2 155 [4]): concentration dependent decrease in cellular fluorescence

O=C(CCC(=O)N1Cc2ccccc2C#Cc2ccccc21)NCCOCCOCCOCCOCCOCCOCCOCCOCCOCCNC(=S)Nc1ccc(-c2c3ccc(=O)cc-3oc3cc(O)ccc23)c(C(=O)O)c1 [DBCO-peg9-Fl]
increase in cellular fluorescence on co-incubation of cells with tunicamycin [2]: ~17 fold

N[C@H](CNC(=O)CCC(=O)N1Cc2ccccc2C#Cc2ccccc21)C(=O)O [D-DapD]
PG labeling levels (fluorescence) above vehicle treated cells (M. smegmatis mc^2 155 [1]; Msm, metabolic label then Fl-az): ~40 fold
